Measurements published in ChEMBL document CHEMBL4402542, “Heat Shock Protein 90 Inhibitors: An Update on Achievements, Challenges, and Future Directions” (J Med Chem, 2020).

Tests used:
MDA-MB-231 = assay: Antiproliferative activity against human MDA-MB-231 cells; format: functional, cell-based
[1] = Binding affinity to His6-tagged TPR2A (unknown origin) assessed as reduction in fluorescein-labeled C-terminal Hsp90/TRP2A protein-protein interaction incubated for 2 hrs by fluorescence polarization assay; design: species or system Homo sapiens
NCI-H1299 = assay: Antiproliferative activity against human NCI-H1299 cells incubated for 2 days followed by medium replacement by MTT assay; format: functional, cell-based; details: NCI-H1299, 48 h
[2] = target: T1, Heat shock protein HSP 90-alpha (Homo sapiens, UniProt P07900); assay: Inhibition of His6-tagged N-terminal human HSP90alpha expressed in Escherichia coli BL21 Lys cells preincubated for 10 mins followed by SA-APC and biotin-GM addition and measured after 6 hrs by TR-FRET assay
Endoplasmin [3] = target: T2, Endoplasmin (Homo sapiens, UniProt P14625); assay: Displacement of FITC-geldanamycin from GRP94 (unknown origin) after 24 hrs by fluorescence polarization assay
T2 sequence (P14625 whole entry): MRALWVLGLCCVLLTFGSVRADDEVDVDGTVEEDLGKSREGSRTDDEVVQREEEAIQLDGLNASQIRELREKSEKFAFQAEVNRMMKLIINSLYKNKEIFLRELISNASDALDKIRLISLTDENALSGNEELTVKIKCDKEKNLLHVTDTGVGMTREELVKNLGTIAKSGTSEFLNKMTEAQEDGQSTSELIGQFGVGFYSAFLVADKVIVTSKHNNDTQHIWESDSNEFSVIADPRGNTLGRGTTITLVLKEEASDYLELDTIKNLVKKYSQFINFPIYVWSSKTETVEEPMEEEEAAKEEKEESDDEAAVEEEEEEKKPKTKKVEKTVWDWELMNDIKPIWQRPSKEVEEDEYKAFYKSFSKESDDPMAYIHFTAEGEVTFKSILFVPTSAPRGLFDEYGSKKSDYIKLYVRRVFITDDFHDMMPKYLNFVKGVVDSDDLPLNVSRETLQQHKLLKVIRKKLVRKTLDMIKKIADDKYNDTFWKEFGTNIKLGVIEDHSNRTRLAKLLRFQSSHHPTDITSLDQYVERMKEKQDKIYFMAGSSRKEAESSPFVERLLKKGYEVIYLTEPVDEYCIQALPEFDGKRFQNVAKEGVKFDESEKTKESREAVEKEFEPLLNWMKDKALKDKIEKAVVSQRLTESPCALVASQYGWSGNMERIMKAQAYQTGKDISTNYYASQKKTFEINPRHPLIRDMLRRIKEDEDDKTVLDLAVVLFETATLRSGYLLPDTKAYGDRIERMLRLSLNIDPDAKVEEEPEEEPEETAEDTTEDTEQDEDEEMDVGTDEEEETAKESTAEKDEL

MCF7 [4] = assay: Antiproliferative activity against human MCF7 cells after 72 hrs by MTS/PMS assay; format: functional, cell-based; details: MCF7, 72 h
[5] = Binding affinity to His6-tagged TPR2A (unknown origin) by isothermal titration calorimetry; design: species or system Homo sapiens
[6] = Antiproliferative activity against rat KNRK5.2 cells; format: functional, cell-based
MCF7 [7] = assay: Antiproliferative activity against human MCF7 cells; format: functional, cell-based
PANC-1 [8] = assay: Antitumor activity against human PANC1 cells xenografted in athymic mouse at 3 mg/kg, ip administered for 2 continuous days followed by 1 injection per 3 days and measured twice per week relative to control; format: functional; details: PANC-1, ip, 72 h, read-out: GI
PANC-1 [9] = assay: Antiproliferative activity against human PANC1 cells after 24 hrs by MTS assay; format: functional, cell-based; details: PANC-1, 24 h
MV4-11 = assay: Antiproliferative activity against human MV4-11 cells after 120 hrs by TopCount scintillation analysis; format: functional, cell-based; details: MV4-11, 120 h
[10] = target: T3, Heat shock protein 75 kDa, mitochondrial (Homo sapiens, UniProt Q12931); assay: Inhibition of FITC-geldanamycin binding to N-terminal His-tagged recombinant human TRAP1 (60 to 704 residues) expressed in Escherichia coli preincubated for 2 hrs followed by Geldanamycin-FITC addition and measured after 5 hrs by fluorescence polarization competitive binding assay
T3 sequence (Q12931 whole entry): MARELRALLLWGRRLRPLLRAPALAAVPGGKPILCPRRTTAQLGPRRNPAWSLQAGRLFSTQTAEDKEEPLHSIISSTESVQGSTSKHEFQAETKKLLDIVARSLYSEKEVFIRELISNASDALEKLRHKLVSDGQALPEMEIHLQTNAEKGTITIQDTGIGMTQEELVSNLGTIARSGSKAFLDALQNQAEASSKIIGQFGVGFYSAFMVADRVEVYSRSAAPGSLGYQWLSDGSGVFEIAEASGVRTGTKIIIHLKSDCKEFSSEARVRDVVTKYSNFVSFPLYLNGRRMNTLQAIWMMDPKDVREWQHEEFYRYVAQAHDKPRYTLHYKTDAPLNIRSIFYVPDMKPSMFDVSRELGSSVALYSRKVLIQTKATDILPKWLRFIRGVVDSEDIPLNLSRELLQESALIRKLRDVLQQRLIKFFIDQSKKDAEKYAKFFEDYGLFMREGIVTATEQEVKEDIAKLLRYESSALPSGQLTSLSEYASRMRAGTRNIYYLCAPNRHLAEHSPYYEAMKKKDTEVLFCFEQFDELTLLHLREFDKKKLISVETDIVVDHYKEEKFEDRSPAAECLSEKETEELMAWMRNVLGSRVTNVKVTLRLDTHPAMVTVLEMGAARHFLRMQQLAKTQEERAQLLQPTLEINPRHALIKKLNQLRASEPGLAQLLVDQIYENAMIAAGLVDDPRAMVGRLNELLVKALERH

[11] = target: Heat shock protein HSP 90-beta (Homo sapiens, UniProt P08238); assay: Inhibition of FITC-geldanamycin binding to recombinant human HSP90beta expressed in Escherichia coli preincubated for 2 hrs followed by Geldanamycin-FITC addition and measured after 5 hrs by fluorescence polarization competitive binding assay
Chain of Heat shock protein HSP 90-beta (P08238 whole entry): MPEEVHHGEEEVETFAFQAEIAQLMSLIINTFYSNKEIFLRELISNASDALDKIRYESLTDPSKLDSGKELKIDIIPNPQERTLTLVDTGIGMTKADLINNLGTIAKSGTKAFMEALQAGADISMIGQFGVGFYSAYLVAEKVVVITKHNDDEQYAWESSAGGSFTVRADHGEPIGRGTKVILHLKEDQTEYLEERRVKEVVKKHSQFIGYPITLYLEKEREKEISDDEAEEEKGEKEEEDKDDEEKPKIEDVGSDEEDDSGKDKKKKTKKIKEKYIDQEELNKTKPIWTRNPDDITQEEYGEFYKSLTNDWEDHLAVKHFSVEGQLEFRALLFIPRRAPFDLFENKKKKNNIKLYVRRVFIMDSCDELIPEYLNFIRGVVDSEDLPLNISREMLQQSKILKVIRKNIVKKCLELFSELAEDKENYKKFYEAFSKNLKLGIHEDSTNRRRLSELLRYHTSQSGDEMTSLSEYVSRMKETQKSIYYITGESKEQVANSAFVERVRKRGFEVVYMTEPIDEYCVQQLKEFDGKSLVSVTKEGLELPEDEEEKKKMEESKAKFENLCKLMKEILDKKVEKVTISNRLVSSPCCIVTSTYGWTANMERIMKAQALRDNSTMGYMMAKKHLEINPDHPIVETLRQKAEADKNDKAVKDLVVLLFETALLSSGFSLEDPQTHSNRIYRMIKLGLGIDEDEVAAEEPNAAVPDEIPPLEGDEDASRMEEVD

[12] = target: T1, Heat shock protein HSP 90-alpha; assay: Inhibition of FITC-geldanamycin binding to recombinant human HSP90alpha expressed in Escherichia coli preincubated for 2 hrs followed by Geldanamycin-FITC addition and measured after 5 hrs by fluorescence polarization competitive binding assay
Endoplasmin [13] = target: T2, Endoplasmin; assay: Inhibition of FITC-geldanamycin binding to N-terminal His-tagged recombinant human GRP94 expressed in Escherichia coli preincubated for 2 hrs followed by Geldanamycin-FITC addition and measured after 5 hrs by fluorescence polarization competitive binding assay
MIA PaCa-2 = assay: Antiproliferative activity against human MIAPaCa2 cells after 48 hrs by MTS assay; format: functional, cell-based; details: MIA PaCa-2, 48 h
BXPC-3 = assay: Antiproliferative activity against human BxPC3 cells after 48 hrs by MTS assay; format: functional, cell-based; details: BXPC-3, 48 h
PANC-1 [14] = assay: Antiproliferative activity against human PANC1 cells after 48 hrs by MTS assay; format: functional, cell-based; details: PANC-1, 48 h

CCCc1nc2c(=O)n(C)c(=O)nc-2n(C)n1 gave an IC50 (MDA-MB-231) of 1750 nM and a Kd [1] of 202 nM.
Work on Cn1nc(Cc2ccccc2)nc2c(=O)n(C)c(=O)nc1-2 yielded a Kd [1] of 566 nM.
CCn1nc(-c2ccccc2)nc2c(=O)n(C)c(=O)nc1-2 showed a Kd [1] of 928 nM.
Work on Cn1nc(-c2ccccc2)nc2c(=O)n(C)c(=O)nc1-2 yielded a Kd [1] of 1040 nM.
Work on COc1ccc(CC(=O)c2ccc3c(c2OC)C=CC(C)(C)O3)cc1OC yielded an IC50 (NCI-H1299) of 140 nM.
COc1cccc(C(=O)NC2CC3CCC(C2)N3c2ccc(C(N)=O)cn2)c1C (stereo unspecified) showed an IC50 [2] of 641 nM.
For CC(C)c1cc(C(=O)N2Cc3ccccc3C2)c(O)c2cnoc12, the Kd (Endoplasmin [3]) was 8480 nM.
With CC(C)=CCc1c(O)cc2occ(-c3ccc(Cl)c(Cl)c3)c(=O)c2c1O the IC50 (MCF7 [4]) was 7300 nM.
CCn1nc(-c2cccs2)nc2c(=O)n(C)c(=O)nc1-2 showed a Kd [1] of 308 nM.
Cc1nc2c(=O)n(C)c(=O)nc-2n(C)n1 gave a Kd [5] of 16000 nM and a Kd [1] of 365 nM.
In the case of C[C@@H]1C[C@H]2O[C@@H]2\C=C/C=C/C(=N\O)Cc2c(Cl)c(O)cc(O)c2C(=O)O1, the IC50 [6] is reported as 39 nM.
With COc1c(C)cnc(Cn2cnc3c(Cl)nc(N)nc32)c1C [BIIB021] the IC50 (MCF7 [7]) was 310 nM.
Work on CC1=C(O)C(=O)C=C2C1=CC=C1[C@@]2(C)CC[C@@]2(C)[C@@H]3C[C@](C)(C(=O)O)CC[C@]3(C)CC[C@]12C [CELASTROL] yielded an inhibition in vivo at 3 mg/kg (PANC-1 [8]) of 80% and an IC50 (PANC-1 [9]) of 3000 nM.
CN(C)c1cc2c(cc1Sc1nc3c(N)nccc3n1CCNCC(C)(C)C)OCO2 [CUDC-305] gave an IC50 (MV4-11) of 100 nM.
With CO[C@@H]1[C@@H](OC(N)=O)[C@@H](O)[C@H](Oc2ccc3c(O)c(NC(=O)c4ccc(O)c(CC=C(C)C)c4)c(=O)oc3c2C)OC1(C)C [NOVOBIOCIN] the IC50 (MCF7 [7]) was 256000 nM.
CC(C)NCCCn1c(Sc2cc3c(cc2I)OCO3)nc2c(N)ncnc21 [PU-H71] gave an IC50 (MCF7 [7]) of 90 nM.
CCc1cc(C(N)=O)ccc1-n1nc(C(C)C)c2c(-n3cnc(-c4cnn(C)c4)c3)ccnc21 [TAS-116] showed a Ki [10] of over 50000 nM, a Ki [11] of 21.3 nM and a Ki [12] of 34.7 nM. It also gave a Ki (Endoplasmin [13]) of over 50000 nM.
In the case of CC1=C(CO)C(=O)O[C@@H]([C@@H](C)[C@H]2CC[C@H]3[C@@H]4C[C@H]5O[C@]56[C@@H](O)C=CC(=O)[C@]6(C)[C@H]4CC[C@]23C)C1 [WITHAFERIN A], the IC50 (MIA PaCa-2) is reported as 2930 nM, the IC50 (BXPC-3) is reported as 2780 nM and the IC50 (PANC-1 [14]) is reported as 1240 nM.
